# Data taken from patent publication US9133115B2 (ACHILLION PHARMACEUTICALS, INC., priority 2008, dated 2015).
# Test system: HCV replicon
# Test: HCV replicon replication assay (NPT ELISA) in Huh-7 replicon-containing cells
# Format: cell-based
# Settings: Hepatitis C virus, 72 h; HCV replicon in Huh-7 cells, three days incubation; read-out: EC50
# Method in brief: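 Huh-7 cells carrying a bicistronic HCV replicon (HCV-IRES-neo, EMCV-IRES-driven NS3–NS5B, 3′-NTR) were seeded at 6000-7500 cells/well, grown 24 h to 60-70% confluence, then treated with graded compound concentrations. Replication was read as NPT level by capture ELISA (rabbit anti-NPTII, Eu-N1 secondary); interferon alpha served as positive control.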
row,SMILES,EC50 [µM]
1,"COc1ccc2c(O[C@@H]3C[C@@H](C(=O)NC4(C(=O)NS(=O)(=O)C5CC5)CCCC4)N(C(=O)[C@@H](CC(=O)N4CCCCC4)C(C)(C)C)C3)cc(-c3ccccc3)nc2c1 [Compound 98, (2S,4R)-1-((S)-2-tert-butyl-4-oxo-4-(piperidin-1-yl)butanoyl)-N-(1-(cyclopropylsulfonyl-carbamoyl)cyclo-pentyl)-4-(7-methoxy-2-phenylquinolin-4-yloxy)pyrrolidine-2-carboxamide]",1 to 10
2,"C=C[C@@H]1C[C@]1(NC(=O)[C@@H]1C[C@@H](OC(=O)n2c3ccccc3c3ccccc32)CN1C(=O)[C@@H](CC(=O)N1CCCCC1)C(C)(C)C)C(=O)NS(=O)(=O)C1CC1 [Compound 99, (3R,5S)-1-((S)-2-tert-butyl-4-oxo-4-(piperidin-1-yl)butanoyl)-5-((1R,2S)-1-(cyclo-propylsulfonyl-carbamoyl)-2-vinyl-cyclopropyl-carbamoyl)pyrrolidin-3-yl 9H-carbazole-9-carboxylate]",< 1
3,"C=C[C@@H]1C[C@]1(NC(=O)[C@@H]1C[C@@H](Oc2cc(-c3csc(NC(C)C)n3)nc3cc(OC)ccc23)CN1C(=O)[C@@H](CC(=O)N1CCOCC1)C(C)(C)C)C(=O)NS(=O)(=O)C1CC1 [Compound 100, (2S,4R)-1-((S)-2-tert-butyl-4-morpholino-4-oxobutanoyl)-N-((1R,2S)-1-(cyclopropylsulfonyl-carbamoyl)-2-vinylcyclopropyl)-4-(2-(2-(isopropyl-amino)thiazol-4-yl)-7-methoxyquinolin-4-yloxy)pyrrolidine-2-carboxamide]",< 1
4,"C=C[C@@H]1C[C@]1(NC(=O)[C@@H]1C[C@@H](Oc2nccc3cc(OC)ccc23)CN1C(=O)[C@@H](CC(=O)N1CCCCC1)C(C)(C)C)C(=O)NS(=O)(=O)C1CC1 [Compound 101, (2S,4R)-1-((S)-2-tert-butyl-4-oxo-4-(piperidin-1-yl)butanoyl)-N-((1R,2S)-1-(cyclo-propylsulfonyl-carbamoyl)-2-vinylcyclopropyl)-4-(6-methoxyisoquinolin-1-yloxy)pyrrolidine-2-carboxamide]",< 1
5,"C=C[C@@H]1C[C@]1(NC(=O)[C@@H]1C[C@@H](Oc2cc(-c3ccccc3)nc3cc(OC)ccc23)CN1C(=O)[C@@H](CC(=O)N1CCCCC1)CC(C)(C)C)C(=O)NS(=O)(=O)C1CC1 [Compound 104, (2S,4R)-N-((1R,2S)-1-(cyclopropyl-sulfonylcarbamoyl)-2-vinylcyclopropyl)-1-((R)-4,4-dimethyl-2-(2-oxo-2-(piperidin-1-yl)ethyl)pentanoyl)-4-(7-methoxy-2-phenylquinolin-4-yloxy)pyrrolidine-2-carboxamide]",< 1
6,"C=C[C@@H]1C[C@]1(NC(=O)[C@@H]1C[C@@H](Oc2cc(-c3ccccc3)nc3cc(OC)ccc23)CN1C(=O)[C@@H](CC(=O)N1CCCCC1)C(C)(C)C)C(=O)NS(=O)(=O)C1CCCC1 [Compound 105, (2S,4R)-1-((S)-2-tert-butyl-4-oxo-4-(piperidin-1-yl)butanoyl)-N-((1R,2S)-1-(cyclopentyl-sulfonylcarbamoyl)-2-vinylcyclopropyl)-4-(7-methoxy-2-phenylquinolin-4-yloxy)pyrrolidine-2-carboxamide]",< 1
7,"C=C[C@@H]1C[C@]1(NC(=O)[C@@H]1C[C@@H](Oc2cc(-c3ccccc3)nc3cc(OC)ccc23)CN1C(=O)[C@@H](CC(=O)N1CCCCC1)C(C)(C)C)C(=O)NS(=O)(=O)C1(C)CC1 [Compound 106, (2S,4R)-1-((S)-2-tert-butyl-4-oxo-4-(piperidin-1-yl)butanoyl)-4-(7-methoxy-2-phenylquinolin-4-yloxy)-N-((1R,2S)-1-(1-methylcyclopropyl-sulfonylcarbamoyl)-2-vinylcyclo-propyl)pyrrolidine-2-carboxamide]",< 1
8,"C=C[C@@H]1C[C@]1(NC(=O)[C@@H]1C[C@@H](Oc2cc(-c3ccccc3)nc3cc(OC)ccc23)CN1C(=O)[C@@H](CC(=O)N1CCCCC1)C(C)(C)C)C(=O)N(C1CC1)S(N)(=O)=O [Compound 107, (2S,4R)-1-((S)-2-tert-butyl-4-oxo-4-(piperidin-1-yl)butanoyl)-N-((1R,2S)-1-(N-cyclopropyl-sulfamoyl-carbamoyl)-2-vinylcyclopropyl)-4-(7-methoxy-2-phenylquinolin-4-yloxy)pyrrolidine-2-carboxamide]",< 1
9,"C=C[C@@H]1C[C@]1(NC(=O)[C@@H]1C[C@@H](Oc2cc(-c3ccccc3)nc3cc(OC)ccc23)CN1C(=O)[C@@H](CC(=O)N1CCCC(F)(F)C1)C(C)(C)C)C(=O)NS(=O)(=O)C1CC1 [Compound 108, (2S,4R)-1-((S)-2-tert-butyl-4-(3,3-difluoropiperidin-1-yl)-4-oxobutanoyl)-N-((1R,2S)-1-(cyclo-propylsulfonyl-carbamoyl)-2-vinylcyclopropyl)-4-(7-methoxy-2-phenylquinolin-4-yloxy)pyrrolidine-2-carboxamide]",< 1
10,"CC[C@H](NC(=O)[C@@H]1C[C@@H](Oc2cc(-c3ccccc3)nc3cc(OC)ccc23)CN1C(=O)[C@@H](CC(=O)N1CCCCC1)C(C)(C)C)C(=O)NS(=O)(=O)C1CC1 [Compound 109, (2S,4R)-1-((S)-2-tert-butyl-4-oxo-4-(piperidin-1-yl)butanoyl)-N-((S)-1-(cyclopropane-sulfonamido)-1-oxobutan-2-yl)-4-(7-methoxy-2-phenylquinolin-4-yloxy)pyrrolidine-2-carboxamide]",1 to 10
11,"COc1ccc2c(O[C@@H]3C[C@@H](C(=O)N[C@H](C(=O)NS(=O)(=O)C4CC4)C(C)C)N(C(=O)[C@@H](CC(=O)N4CCCCC4)C(C)(C)C)C3)cc(-c3ccccc3)nc2c1 [Compound 110, (2S,4R)-1-((S)-2-tert-butyl-4-oxo-4-(piperidin-1-yl)butanoyl)-N-((S)-1-(cyclopropane-sulfonamido)-3-methyl-1-oxobutan-2-yl)-4-(7-methoxy-2-phenylquinolin-4-yloxy)pyrrolidine-2-carboxamide]",1 to 10
12,"COc1ccc2c(O[C@@H]3C[C@@H](C(=O)NC(C)(C)C(=O)NS(=O)(=O)C4CC4)N(C(=O)[C@@H](CC(=O)N4CCCCC4)C(C)(C)C)C3)cc(-c3ccccc3)nc2c1 [Compound 111, (2S,4R)-1-((S)-2-tert-butyl-4-oxo-4-(piperidin-1-yl)butanoyl)-N-(1-(cyclopropane-sulfonamido)-2-methyl-1-oxopropan-2-yl)-4-(7-methoxy-2-phenylquinolin-4-yloxy)pyrrolidine-2-carboxamide]",1 to 10
13,"COc1ccc2c(O[C@@H]3C[C@@H](C(=O)N[C@H](C(=O)NS(=O)(=O)C4CC4)c4ccccc4)N(C(=O)[C@@H](CC(=O)N4CCCCC4)C(C)(C)C)C3)cc(-c3ccccc3)nc2c1 [Compound 112, (2S,4R)-1-((S)-2-tert-butyl-4-oxo-4-(piperidin-1-yl)butanoyl)-N-((S)-2-(cyclopropane-sulfonamido)-2-oxo-1-phenylethyl)-4-(7-methoxy-2-phenylquinolin-4-yloxy)pyrrolidine-2-carboxamide]",1 to 10
14,"CCC[C@H](NC(=O)[C@@H]1C[C@@H](Oc2cc(-c3ccccc3)nc3cc(OC)ccc23)CN1C(=O)[C@@H](CC(=O)N1CCCCC1)C(C)(C)C)C(=O)NS(=O)(=O)C1CC1 [Compound 113, (2S,4R)-1-((S)-2-tert-butyl-4-oxo-4-(piperidin-1-yl)butanoyl)-N-((S)-1-(cyclopropanesulfon-amido)-1-oxopentan-2-yl)-4-(7-methoxy-2-phenylquinolin-4-yloxy)pyrrolidine-2-carboxamide]",1 to 10
